Assays:
[1] = biological target: human NaV1.7 (Homo sapiens (Human), UniProt Q15858); test: Patch voltage clamp electrophysiology assay, NaV1.7; format: cell-based; conditions: inactivated state; HEK-293 cells stably expressing NaV1.7 with β1 subunit; held at −60 mV; read-out: Human 1.7 EP (IC50 μM)
[2] = biological target: human NaV1.5 (Homo sapiens (Human), UniProt Q14524); test: Patch voltage clamp electrophysiology assay, NaV1.5; conditions: read-out: Human 1.5 EP IC50 μM; inactivated state; HEK-293 cells stably expressing NaV1.5 with β1 subunit; held at −60 mV

Chain of human NaV1.7 (Q15858 other isoform, or with tags, fused parts or gaps): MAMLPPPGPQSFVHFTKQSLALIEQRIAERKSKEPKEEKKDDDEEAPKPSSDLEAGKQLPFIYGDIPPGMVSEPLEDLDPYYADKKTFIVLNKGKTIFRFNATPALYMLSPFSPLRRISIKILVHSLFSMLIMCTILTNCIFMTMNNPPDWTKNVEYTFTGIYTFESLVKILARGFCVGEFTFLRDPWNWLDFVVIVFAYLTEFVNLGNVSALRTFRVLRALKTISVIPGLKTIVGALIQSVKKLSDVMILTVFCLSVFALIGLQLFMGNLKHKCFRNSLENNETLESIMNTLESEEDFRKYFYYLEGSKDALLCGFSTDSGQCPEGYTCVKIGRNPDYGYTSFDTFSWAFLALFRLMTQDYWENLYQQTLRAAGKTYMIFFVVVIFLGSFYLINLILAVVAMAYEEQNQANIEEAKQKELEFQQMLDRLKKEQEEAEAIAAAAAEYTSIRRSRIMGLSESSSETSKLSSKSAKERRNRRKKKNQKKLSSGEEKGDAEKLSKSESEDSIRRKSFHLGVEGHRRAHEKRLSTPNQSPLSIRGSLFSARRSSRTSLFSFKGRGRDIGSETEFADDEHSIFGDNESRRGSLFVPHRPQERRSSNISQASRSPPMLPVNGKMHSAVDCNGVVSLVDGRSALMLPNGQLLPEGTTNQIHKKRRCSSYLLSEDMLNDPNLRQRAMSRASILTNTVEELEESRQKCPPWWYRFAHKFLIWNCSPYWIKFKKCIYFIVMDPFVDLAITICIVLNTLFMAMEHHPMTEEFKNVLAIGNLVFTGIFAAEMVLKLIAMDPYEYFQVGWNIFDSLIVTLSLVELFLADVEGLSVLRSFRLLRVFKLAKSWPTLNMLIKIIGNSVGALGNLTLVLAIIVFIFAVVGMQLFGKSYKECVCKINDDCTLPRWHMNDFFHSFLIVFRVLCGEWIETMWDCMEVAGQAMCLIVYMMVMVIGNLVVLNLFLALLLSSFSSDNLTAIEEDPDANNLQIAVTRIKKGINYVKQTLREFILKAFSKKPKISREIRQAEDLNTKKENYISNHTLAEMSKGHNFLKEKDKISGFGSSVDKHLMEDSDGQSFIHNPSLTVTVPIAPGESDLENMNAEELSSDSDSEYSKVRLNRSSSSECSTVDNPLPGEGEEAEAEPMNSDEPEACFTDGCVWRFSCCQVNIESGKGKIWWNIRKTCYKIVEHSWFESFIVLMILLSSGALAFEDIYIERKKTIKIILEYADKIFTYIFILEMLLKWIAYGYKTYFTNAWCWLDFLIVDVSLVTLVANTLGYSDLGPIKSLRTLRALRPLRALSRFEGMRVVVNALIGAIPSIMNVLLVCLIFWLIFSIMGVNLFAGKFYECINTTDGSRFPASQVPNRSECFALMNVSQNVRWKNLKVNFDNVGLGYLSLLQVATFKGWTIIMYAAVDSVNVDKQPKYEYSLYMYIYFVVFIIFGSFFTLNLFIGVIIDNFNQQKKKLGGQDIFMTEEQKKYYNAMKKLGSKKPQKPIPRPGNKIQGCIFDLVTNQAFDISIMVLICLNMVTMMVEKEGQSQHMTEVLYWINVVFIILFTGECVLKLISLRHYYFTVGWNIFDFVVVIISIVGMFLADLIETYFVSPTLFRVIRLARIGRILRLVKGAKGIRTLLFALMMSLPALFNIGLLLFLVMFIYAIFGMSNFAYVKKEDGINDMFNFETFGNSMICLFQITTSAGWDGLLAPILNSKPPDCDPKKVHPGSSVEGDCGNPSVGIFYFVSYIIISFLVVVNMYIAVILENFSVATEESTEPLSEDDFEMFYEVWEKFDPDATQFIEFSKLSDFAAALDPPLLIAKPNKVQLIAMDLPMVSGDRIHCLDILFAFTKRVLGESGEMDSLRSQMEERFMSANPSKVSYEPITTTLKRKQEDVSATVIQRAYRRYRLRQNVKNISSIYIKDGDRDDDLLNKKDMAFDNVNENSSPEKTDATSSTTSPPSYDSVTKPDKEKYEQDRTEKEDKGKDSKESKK
Chain of human NaV1.7 (Q07699 19-218 partner): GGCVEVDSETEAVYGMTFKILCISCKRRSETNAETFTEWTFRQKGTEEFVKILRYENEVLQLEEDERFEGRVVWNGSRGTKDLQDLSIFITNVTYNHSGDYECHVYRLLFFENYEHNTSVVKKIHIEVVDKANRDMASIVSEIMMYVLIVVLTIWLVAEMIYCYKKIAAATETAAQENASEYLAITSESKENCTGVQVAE

Molecule: CN(C)S(=O)(=O)NC(=O)c1cc(Cl)c(OC2CCC3(CCCCC3)CC2)cc1F [Example 79]
- IC50 [1]: 0.0854 µM

Molecule: CN(C)S(=O)(=O)NC(=O)c1cc(Cl)c(OCC23CC4CC(CC(F)(C4)C2)C3)cc1F [Example 86, 5-chloro-N-(N N-dimethylsulfamoyl)-2-fluoro-4-((3-fluoroadamantan-1-yl)methoxy)benzamide]
- IC50 [1]: 0.00131 µM

Molecule: 4-(2-(adamantan-1-yl)ethoxy)-3-chloro-N-(methylsulfonyl)benzamide [Example 13]
- IC50 [1]: 0.123 µM

Molecule: CS(=O)(=O)NC(=O)c1cc(Cl)c(OC2[C@@H]3CC4C[C@H]2CC(Cl)(C4)C3)cc1F (stereo partly drawn) [Example 25, 5-chloro-4-(((1R,2r,3S,5s,7s)-5-chloroadamantan-2-yl)oxy)-2-fluoro-N-(methylsulfonyl)benzamide]
- IC50 [1]: 0.027 µM

Molecule: 4-(adamantan-1-ylmethoxy)-5-chloro-N-(N,N-dimethylsulfamoyl)-2-fluorobenzamide [Example 28]
- IC50 [1]: 2.25 µM

Molecule: 5-chloro-4-(3-cyclohexylpropoxy)-N-(N,N-dimethylsulfamoyl)-2-fluorobenzamide [Example 82]
- IC50 [1]: 0.0416 µM

Molecule: CC1(C)C2CCC1(C)C(Oc1cc(F)c(C(=O)NS(C)(=O)=O)cc1Cl)C2 (stereo not drawn) [Example 15, 5-chloro-2-fluoro-N-(methylsulfonyl)-4-((exo-1,7,7-trimethylbicyclo[2.2.1]heptan-2-yl)oxy)benzamide]
- IC50 [1]: 0.171 µM

Molecule: 4-(bicyclo[2.2.1]heptan-2-yloxy)-5-chloro-2-fluoro-N-(methylsulfonyl)-benzamide [Example 145]
- IC50 [1]: 0.0036 µM

Molecule: 4-(1-(adamantan-1-yl)ethoxy)-5-chloro-2-fluoro-N-(methylsulfonyl)benzamide [Example 19]
- IC50 [1]: 0.0386 µM

Molecule: 4-(adamantan-1-ylmethoxy)-5-chloro-2-fluoro-N-(methylsulfonyl)benzamide [Example 8]
- IC50 [2]: 1.07 µM

Molecule: 5-Chloro-2-fluoro-N-(methylsulfonyl)-4-((2,2,3,3-tetramethylcyclopropyl)-methoxy)benzamide [Example 34]
- IC50 [1]: 0.0658 µM

Molecule: 5-chloro-2-fluoro-N-(methylsulfonyl)-4-((1-(trifluoromethyl)cyclopropyl)-methoxy)benzamide [Example 36]
- IC50 [1]: 0.0077 µM

From patent publication US9771376B2 (GENENTECH, INC., priority 2000, dated 2017)
